The values that follow come from patent publication US20190292516A1, “METHOD FOR IMPROVING PRODUCT TITER IN A CELL AND A CELL MEDIA FOR IMPROVING THE SAME” (VALITACELL LIMITED, priority 2018, published 2019).

Common to all, as to format: cell-based, Chinese Hamster
Series [1] has as its system CHO-S stable clone producing an anti-Her2 like IgG1 antibody. Nature of the series: Cell cycle analysis by propidium iodide staining and flow cytometry. Conditions: 3TAA 2.5 mM added Day 0, shake flask, analysed Day 4. The procedure:
(§1) Shake flask cultures were performed in vented Erlenmeyer flasks with a 30 ml working culture volume. Cells were seeded at 0.2×10^6 cells ml^−1. 3TAA was added at 2.5 mM (optimum concentrations from deep well plate culture) on Day 0. Growth and titer were monitored daily. Total RNA and histone extracts were collected from Day 5 of culture. Cell cycle and apoptosis analysis were performed on Day 4 and Day 5 post seeding respectively.
1×10^6 cells were extracted from culture and fixed in 4% paraformaldehyde (Alfa Aesar; Thermo Fisher Scientific). The cells were then stained with propidium iodide using the FxCycle™ PI/RNase Staining Solution (Thermo Fisher Scientific). Cell cycle analysis was performed on the Attune Acoustic Focusing Cytometer (Thermo Fisher Scientific).
In general terms: Flow cytometry measures light scatter and fluorescence of single cells or particles in a stream.

For series [2] the test system is unchanged. The experiment in a line: Apoptosis analysis of 3TAA supplemented shake flask cultures. As to conditions: 3TAA 2.5 mM added Day 0, shake flask, analysed Day 5. Here is the method:
as §1

A short description of series [3]: Batch shake flask culture supplemented with 3TAA. As to conditions: Chinese hamster, CHO-S stable clone producing an anti-Her2 like IgG1 antibody, Day 0 addition. The procedure:
as §1

Series [4] has as its system CHO-S stable clone producing an anti-Her2 like IgG1 antibody. The experiment in a line: Batch shake flask culture supplemented with 3TAA. Conditions: 2.5 mM, Day 0 addition, 10 days. The procedure:
as §1

The test system is the same in series [5]. Nature of the series: Deep well shaking plate culture with chemical enhancer added at Day 0 or Day 3; cell growth, viability and titer. Here is the method:
The Applicant uses a platform consisting of screening Chinese Hamster Ovary (CHO) cell clone leads grown in a deep well plate coated with media containing 3TAA. The cells are measured for increased growth and productivity (titer) to determine whether 3TAA, and other enhancer chemicals, have offered the optimum cell culture environment, and can improve the growth and/or productivity of promising lead clones, which otherwise, grown in sub-optimal conditions, would not have been selected. To establish optimum concentration for the best titer boost, high throughput experimentation was performed in 96 deep well plates (Greiner Bio-One, Gloucestershire, United Kingdom). The cell line used was a CHO-S stable clone producing an anti-Her2 like IgG1 antibody. Cells were cultured in CD CHO medium (Thermo Fisher Scientific, Paisley, UK), supplemented with 8 mM L-glutamine, 1% HT supplement and 12.5 ug/ml puromycin selection marker (Thermo Fisher Scientific, Paisley, UK). Cells grown in these plates were incubated at 320 rpm (25 mm throw), 37° C., 5% CO2 and 85% humidity. The plates were covered with vented lids and secured using clamps (“System Duetz”; Enzyscreen B.V., Heemstede, Netherlands). Cells were seeded at 0.2×10^6 cells ml^−1 with a seeding volume of 450 μL (unless specified otherwise). Chemical enhancer molecules, including 3TAA, were trialled at 4 to 10 different concentrations at Day 0 in culture. Subsequently, a subset of concentrations was carried forward for delayed addition at Day 3 of culture. Day 3 was chosen based on the cell growth profile in deep well plates. Cells were cultured for 5 days before culture attributes (cell growth and titer) were recorded, unless otherwise stated. Cell growth was measured using the PrestoBlue® Assay (ThermoFisher Scientific), viability was verified using the Vi-cell™ cell viability analyser (Beckmann Coulter, High Wycombe, UK), and titer was measured using the Valita™TITER assay (Valitacell, Dublin, Ireland).

[6] abbreviates: 3TAA 2.5 mM, Day 0 addition, deep well plate.

As to `O=C(O)Cc1ccsc1` [3TAA, 3-Thiopheneacetic acid], the “increase in accumulation in the G1 phase” value in series [1] turned out to be 11%. Moreover, the “initiation of apoptotic pathways” value in series [2] is reported as “Apoptotic pathways were not initiated”. Also, in series [3], the decrease in peak viable cell density at 10 days, 2.5 mM was determined as 30%. The “culture viability in comparison to vehicle and no addition controls” value in series [4] is “remained unaffected”. Besides, in series [4], the “increase in total volumetric titer” value is given as 1.9 fold. Also, the “reduction in IVCD” value in series [5] (2.5 mM, Day 0 addition) is listed as 25%; in series [5] (2.5 mM, Day 3 addition), 20%; in series [5] (4 mM, Day 0 addition), 50%; in series [5] (4 mM, Day 3 addition) it was 25%. Further, the titer boost in series [5] (2.5 mM, Day 0 addition) amounted to 160%; in series [5] (2.5 mM, Day 3 addition), 177%; in series [5] (4 mM, Day 0 addition), 17%; in series [5] (4 mM, Day 3 addition), 125%; in series [5] (setting [6]), 1.59 fold; in series [5] (delayed addition at exponential phase (Day 3), concentration not given), 2.6 fold. For the same compound, the cell growth reduction in series [5] (setting [6]) was found to be 25%.
